Measurements as given in DBAASP.
≈ marks a conversion by molar mass, not a printed value. Blank lines part the entries; values can stand above or below the compound they belong to.

Experiments:
Assay in all cases: ≥ marks a high value that may be exact or a test limit, other limits are often not marked, values filed in µg/mL are converted to µM
[1] = test system: Salmonella enterica subsp. enterica serovar Typhimurium ATCC 14028
[2] = test system: Klebsiella pneumoniae ATCC 10031
[3] = test system: Escherichia coli DH5alpha
[4] = test system: Staphylococcus carnosus KHS
[5] = test system: Staphylococcus aureus ATCC 25923
[6] = test system: Bacillus licheniformis X39
[7] = test system: Rhodococcus rhodochrous X15
[8] = test system: Enterococcus faecalis 981
[9] = test system: Staphylococcus aureus ATCC 2592
[10] = test system: Candida albicans ATCC 2002
[11] = test system: Psychrobacter faecalis X29
[12] = test system: Pseudomonas aeruginosa Ps4
Streptococcus uberis = test system: Streptococcus uberis
Staphylococcus aureus = test system: Staphylococcus aureus
Escherichia coli = test system: Escherichia coli
Bacillus cereus = test system: Bacillus cereus
Pasteurella multocida = test system: Pasteurella multocida
Listeria innocua = test system: Listeria innocua
Leuconostoc lactis = test system: Leuconostoc lactis
Micrococcus luteus = test system: Micrococcus luteus
[13] = test system: Staphylococcus epidermidis

MIC [1]: 16.3 µM (≈ 25 µg/mL) | MIC [2]: 16.3 µM (≈ 25 µg/mL) | MIC [3]: 4.08 µM (≈ 6.25 µg/mL)
Compound: CC(C)C[C@H](NC(=O)[C@H](CCCCN)NC(=O)[C@H](CCCCN)NC(=O)[C@H](CC(C)C)NC(=O)[C@H](CC(C)C)NC(=O)[C@H](CCCCN)NC(=O)[C@H](CC(C)C)NC(=O)[C@@H](N)Cc1ccccc1)C(=O)N[C@@H](C)C(=O)N[C@@H](C)C(=O)N[C@@H](CCCCN)C(=O)N[C@@H](CC(C)C)C(=O)N[C@@H](Cc1ccccc1)C(=O)O [FLKLLKKLAAKLF]

MIC [4]: 19 µM (≈ 26.7 µg/mL) | MIC [5]: 150 µM (≈ 210 µg/mL) | MIC [6]: 19 µM (≈ 26.7 µg/mL) | MIC [7]: 9 µM (≈ 12.6 µg/mL) | MIC [8]: ≥ 37.5 µM
Compound: CC[C@H](C)[C@H](NC(=O)[C@@H]1CCCN1C(=O)[C@H](CC(C)C)NC(=O)[C@@H](N)Cc1ccccc1)C(=O)N[C@H](C(=O)NCC(=O)N[C@@H](CCCCN)C(=O)N[C@@H](CC(C)C)C(=O)N[C@@H](CC(C)C)C(=O)N[C@@H](CO)C(=O)NCC(=O)N[C@@H](CC(C)C)C(=O)N[C@@H](Cc1ccccc1)C(N)=O)C(C)C [FLPIVGKLLSGLF]

MIC [4]: ≥ 37.5 µM | MIC [5]: 37.5 µM (≈ 60.6 µg/mL) | MIC [9]: ≥ 46.4 µM | MIC [10]: ≥ 75 µM | MIC [6]: 19 µM (≈ 30.7 µg/mL) | MIC [7]: 4.8 µM (≈ 7.76 µg/mL) | MIC [8]: ≥ 150 µM | MIC [11]: ≥ 75 µM
Compound: CC[C@H](C)[C@H](NC(=O)[C@H](C)N)C(=O)N[C@@H](CC(C)C)C(=O)N[C@H](C(=O)N[C@H](C(=O)N[C@@H](CC(C)C)C(=O)N[C@@H](C)C(=O)N[C@@H](CC(N)=O)C(=O)N[C@@H](Cc1c[nH]c2ccccc12)C(=O)N[C@@H](C)C(=O)N[C@@H](CCCN=C(N)N)C(=O)N[C@@H](CCCCN)C(=O)N[C@@H](Cc1ccccc1)C(=O)N[C@@H](CC(C)C)C(N)=O)[C@@H](C)O)[C@@H](C)O [AILTTLANWARKFL]

MIC [4]: 19 µM (≈ 27.3 µg/mL) | MIC [5]: 150 µM (≈ 216 µg/mL) | MIC [6]: 19 µM (≈ 27.3 µg/mL) | MIC [7]: 4.5 µM (≈ 6.47 µg/mL) | MIC [8]: ≥ 75 µM
Compound: CC[C@H](C)[C@H](NC(=O)[C@@H]1CCCN1C(=O)[C@H](Cc1ccccc1)NC(=O)[C@@H](N)Cc1ccccc1)C(=O)N[C@H](C(=O)NCC(=O)N[C@@H](CCCCN)C(=O)N[C@@H](CC(C)C)C(=O)N[C@@H](CC(C)C)C(=O)N[C@@H](CO)C(=O)NCC(=O)N[C@@H](CC(C)C)C(=O)N[C@@H](Cc1ccccc1)C(N)=O)C(C)C [FFPIVGKLLSGLF]

MIC [12]: ≥ 172 µM
Compound: CC(C)[C@H](NC(=O)[C@H](CCCCN)NC(=O)[C@H](CCCN=C(N)N)NC(=O)[C@H](Cc1ccc(O)cc1)NC(=O)[C@H](CC(N)=O)NC(=O)[C@H](CCCN=C(N)N)NC(=O)[C@H](CCC(N)=O)NC(=O)[C@H](Cc1c[nH]c2ccccc12)NC(=O)[C@@H](N)Cc1ccccc1)C(=O)N[C@@H](CCCN=C(N)N)C(N)=O [FWQRNYRKVR]

MIC [9]: 1.7 µM (≈ 6.04 µg/mL) | MIC [6]: 14 µM (≈ 49.7 µg/mL) | MIC [11]: 1.7 µM (≈ 6.04 µg/mL)
Compound: CC[C@H](C)[C@H](NC(=O)[C@H](CCCCN)NC(=O)[C@H](CC(=O)O)NC(=O)[C@H](CC(C)C)NC(=O)[C@@H](NC(=O)[C@H](CC(N)=O)NC(=O)[C@H](CC(C)C)NC(=O)[C@@H](NC(=O)[C@H](Cc1ccccc1)NC(=O)[C@H](CCC(N)=O)NC(=O)[C@H](CCCCN)NC(=O)CNC(=O)[C@H](C)NC(=O)[C@H](CC(N)=O)NC(=O)[C@H](CCCCN)NC(=O)[C@H](Cc1ccccc1)NC(=O)[C@H](CC(N)=O)NC(=O)[C@H](CCC(=O)O)NC(=O)[C@H](Cc1c[nH]c2ccccc12)NC(=O)[C@H](CC(C)C)NC(=O)[C@@H](N)CO)[C@@H](C)CC)[C@@H](C)CC)C(=O)N[C@@H](CCCN=C(N)N)C(=O)N[C@H]1CSSC[C@@H](C(=O)N[C@@H](CCCN=C(N)N)C(=O)N[C@H](C(=O)O)[C@@H](C)O)NC(=O)CNC(=O)CNC(=O)[C@H](C)NC(=O)[C@H](C(C)C)NC(=O)[C@H](CCCN=C(N)N)NC1=O [SLWENFKNAGKQFILNILDKIRCRVAGGCRT]

MIC [12]: 23.9 µM (≈ 31.2 µg/mL)
Compound: CC[C@H](C)[C@H](NC(=O)[C@H](CCCN=C(N)N)NC(=O)[C@H](Cc1c[nH]c2ccccc12)NC(=O)[C@@H](N)Cc1ccccc1)C(=O)N[C@@H](Cc1c[nH]c2ccccc12)C(=O)N[C@@H](CCCN=C(N)N)C(=O)N[C@@H](Cc1c[nH]c2ccccc12)C(=O)N[C@@H](CCCN=C(N)N)C(N)=O [FWRIWRWR]

MIC [12]: ≥ 215 µM
Compound: CC[C@H](C)[C@H](NC(=O)[C@H](CCCN=C(N)N)NC(=O)[C@H](Cc1c[nH]c2ccccc12)NC(=O)[C@@H](N)Cc1ccccc1)C(=O)N[C@@H](CCCN=C(N)N)C(=O)N[C@@H](CCCCN)C(=O)N[C@H](C(=O)N[C@@H](CCCN=C(N)N)C(N)=O)C(C)C [FWRIRKVR]

MIC (Streptococcus uberis): ≥ 61.5 µM | MIC (Staphylococcus aureus): 30.7 µM (≈ 50 µg/mL) | MIC (Escherichia coli): 61.5 µM (≈ 99.9 µg/mL) | MIC (Bacillus cereus): ≥ 61.5 µM | MIC (Pasteurella multocida): ≥ 61.5 µM | MIC (Listeria innocua): 15.4 µM (≈ 25 µg/mL) | MIC (Leuconostoc lactis): 7.38 µM (≈ 12 µg/mL) | MIC (Micrococcus luteus): ≥ 61.5 µM | MIC [13]: 15.4 µM (≈ 25 µg/mL)
Compound: CC[C@H](C)[C@H](NC(=O)[C@@H](NC(=O)[C@H](C)NC(=O)[C@H](C)NC(=O)[C@@H](NC(=O)[C@H](CCCCN)NC(=O)[C@H](CCCCN)NC(=O)[C@@H](NC(=O)[C@@H](NC(=O)[C@H](C)NC(=O)[C@H](Cc1ccccc1)NC(=O)[C@H](CC(C)C)NC(=O)[C@@H](N)CCCCN)C(C)C)[C@@H](C)CC)C(C)C)C(C)C)C(=O)NCC(=O)NCC(=O)N[C@@H](CC(C)C)C(N)=O [KLFAVIKKVAAVIGGL]

MIC (Streptococcus uberis): ≥ 38.7 µM | MIC (Staphylococcus aureus): 38.7 µM (≈ 100 µg/mL) | MIC (Escherichia coli): 38.7 µM (≈ 100 µg/mL) | MIC (Bacillus cereus): 19.3 µM (≈ 50 µg/mL) | MIC (Pasteurella multocida): 9.67 µM (≈ 25 µg/mL) | MIC (Listeria innocua): ≥ 38.7 µM | MIC (Leuconostoc lactis): 9.67 µM (≈ 25 µg/mL) | MIC (Micrococcus luteus): 0.58 µM (≈ 1.5 µg/mL) | MIC [13]: ≥ 38.7 µM
Compound: CC[C@H](C)[C@H](NC(=O)[C@@H](NC(=O)[C@@H]1CCCN1C(=O)[C@@H](NC(=O)[C@@H](NC(=O)[C@H](Cc1cnc[nH]1)NC(=O)[C@@H]1CCCN1C(=O)[C@H](CC(C)C)NC(=O)[C@@H](NC(=O)[C@H](Cc1cnc[nH]1)NC(=O)[C@H](CCC(N)=O)NC(=O)[C@H](C)NC(=O)[C@@H](NC(=O)[C@H](CO)NC(=O)CNC(=O)[C@H](CC(C)C)NC(=O)[C@@H](NC(=O)[C@H](CO)NC(=O)[C@H](CC(C)C)NC(=O)[C@H](CC(C)C)NC(=O)CN)C(C)C)C(C)C)C(C)C)C(C)C)C(C)C)C(C)C)C(=O)N[C@@H](C)C(=O)N[C@@H](CCC(=O)O)C(=O)N[C@@H](Cc1cnc[nH]1)C(=O)N[C@@H](CC(C)C)C(N)=O [GLLSVLGSVAQHVLPHVVPVIAEHL]

MIC (Streptococcus uberis): 14 µM (≈ 25 µg/mL) | MIC (Staphylococcus aureus): 14 µM (≈ 25 µg/mL) | MIC (Escherichia coli): > 56 µM | MIC (Bacillus cereus): 14 µM (≈ 25 µg/mL) | MIC (Pasteurella multocida): ≥ 56 µM | MIC (Listeria innocua): 14 µM (≈ 25 µg/mL) | MIC (Leuconostoc lactis): 1.68 µM (≈ 3 µg/mL) | MIC (Micrococcus luteus): 6.73 µM (≈ 12 µg/mL) | MIC [13]: 6.73 µM (≈ 12 µg/mL)
Compound: CC[C@H](C)[C@H](NC(=O)[C@@H](NC(=O)CN)C(C)C)C(=O)N[C@@H](C)C(=O)N[C@@H](C)C(=O)N[C@@H](C)C(=O)N[C@@H](CCCCN)C(=O)N[C@@H](CCCCN)C(=O)N[C@H](C(=O)N[C@H](C(=O)N[C@@H](CC(N)=O)C(=O)N[C@H](C(=O)N[C@@H](CC(C)C)C(=O)N[C@@H](CCCCN)C(=O)N[C@@H](CC(N)=O)C(=O)N[C@@H](CC(C)C)C(=O)N[C@@H](Cc1ccccc1)C(N)=O)C(C)C)C(C)C)C(C)C [GVIAAAKKVVNVLKNLF]

MIC [12]: ≥ 177 µM
Compound: CC[C@H](C)[C@H](NC(=O)[C@H](CCCN=C(N)N)NC(=O)[C@@H](NC(=O)[C@H](CC(N)=O)NC(=O)[C@H](CCCN=C(N)N)NC(=O)[C@H](CCC(N)=O)NC(=O)[C@H](Cc1c[nH]c2ccccc12)NC(=O)[C@@H](N)CC(C)C)[C@@H](C)CC)C(=O)N[C@@H](CCCN=C(N)N)C(=O)N[C@@H](CCCN=C(N)N)C(N)=O [LWQRNIRIRR]

MIC [11]: ≥ 400 µM
Compound: CC[C@H](C)[C@@H]1NC(=O)[C@H](CCCCN)NC(=O)[C@@H](NC(=O)[C@H](CCCCN)NC(=O)[C@H](C)NC(=O)[C@H](CCCCN)NC(=O)[C@H](CC(=O)O)NC(=O)[C@H](CCSC)NC(=O)[C@H](CC(C)C)NC(=O)[C@@H](NC(=O)CNC(=O)[C@H](C)NC(=O)[C@H](CC(C)C)NC(=O)[C@H](CC(N)=O)NC(=O)[C@@H](NC(=O)[C@@H](NC(=O)[C@@H](NC(=O)[C@H](CC(N)=O)NC(=O)[C@H](CCSC)NC(=O)[C@H](C)NC(=O)[C@@H](NC(=O)[C@H](CC(N)=O)NC(=O)[C@H](CC(C)C)NC(=O)[C@H](Cc2ccccc2)NC(=O)CN)[C@@H](C)O)[C@@H](C)O)C(C)C)[C@@H](C)O)[C@@H](C)O)CSSC[C@@H](C(=O)O)NC(=O)CNC(=O)[C@H](CCCN=C(N)N)NC1=O [GFLNTAMNTVTNLAGTLMDKAKCKIRGC]
